Earlier results, collected in publication PMC11728000, “Antitumor Activity and Multi-Target Mechanism of Phenolic Schiff Bases Bearing Methanesulfonamide Fragments: Cell Cycle Analysis and a Molecular Modeling Study” (International Journal of Molecular Sciences, 2024).

Tests used:
[1] = tested on: MOLT-4; design: method as in https://dtp.cancer.gov/dtpstandard/dwindex/index.jsp; settings: ref https://dtp.cancer.gov/dtpstandard/dwindex/index.jsp; cited from earlier work
[2] = tested on: A549/ATCC; design: method as in https://dtp.cancer.gov/dtpstandard/dwindex/index.jsp; settings: ref https://dtp.cancer.gov/dtpstandard/dwindex/index.jsp; cited from earlier work
[3] = tested on: NCI-H226; design: method as in https://dtp.cancer.gov/dtpstandard/dwindex/index.jsp; settings: ref https://dtp.cancer.gov/dtpstandard/dwindex/index.jsp; cited from earlier work
[4] = tested on: NCI-H23; design: method as in https://dtp.cancer.gov/dtpstandard/dwindex/index.jsp; settings: ref https://dtp.cancer.gov/dtpstandard/dwindex/index.jsp; cited from earlier work
[5] = tested on: NCI-H322M; design: method as in https://dtp.cancer.gov/dtpstandard/dwindex/index.jsp; settings: ref https://dtp.cancer.gov/dtpstandard/dwindex/index.jsp; cited from earlier work
[6] = tested on: NCI-H460; design: method as in https://dtp.cancer.gov/dtpstandard/dwindex/index.jsp; settings: ref https://dtp.cancer.gov/dtpstandard/dwindex/index.jsp; cited from earlier work
[7] = tested on: KM12; design: method as in https://dtp.cancer.gov/dtpstandard/dwindex/index.jsp; settings: ref https://dtp.cancer.gov/dtpstandard/dwindex/index.jsp; cited from earlier work
[8] = tested on: SF-268; design: method as in https://dtp.cancer.gov/dtpstandard/dwindex/index.jsp; settings: ref https://dtp.cancer.gov/dtpstandard/dwindex/index.jsp; cited from earlier work
[9] = tested on: SF-295; design: method as in https://dtp.cancer.gov/dtpstandard/dwindex/index.jsp; settings: ref https://dtp.cancer.gov/dtpstandard/dwindex/index.jsp; cited from earlier work
[10] = tested on: SNB-19; design: method as in https://dtp.cancer.gov/dtpstandard/dwindex/index.jsp; settings: ref https://dtp.cancer.gov/dtpstandard/dwindex/index.jsp; cited from earlier work
[11] = tested on: U251; design: method as in https://dtp.cancer.gov/dtpstandard/dwindex/index.jsp; settings: ref https://dtp.cancer.gov/dtpstandard/dwindex/index.jsp; cited from earlier work
[12] = tested on: MALME-3M; design: method as in https://dtp.cancer.gov/dtpstandard/dwindex/index.jsp; settings: ref https://dtp.cancer.gov/dtpstandard/dwindex/index.jsp; cited from earlier work
[13] = tested on: SK-MEL-2; design: method as in https://dtp.cancer.gov/dtpstandard/dwindex/index.jsp; settings: ref https://dtp.cancer.gov/dtpstandard/dwindex/index.jsp; cited from earlier work
[14] = tested on: SK-MEL-28; design: method as in https://dtp.cancer.gov/dtpstandard/dwindex/index.jsp; settings: ref https://dtp.cancer.gov/dtpstandard/dwindex/index.jsp; cited from earlier work
[15] = tested on: UACC-257; design: method as in https://dtp.cancer.gov/dtpstandard/dwindex/index.jsp; settings: ref https://dtp.cancer.gov/dtpstandard/dwindex/index.jsp; cited from earlier work
[16] = tested on: UACC-62; design: method as in https://dtp.cancer.gov/dtpstandard/dwindex/index.jsp; settings: ref https://dtp.cancer.gov/dtpstandard/dwindex/index.jsp; cited from earlier work
[17] = tested on: IGROV1; design: method as in https://dtp.cancer.gov/dtpstandard/dwindex/index.jsp; settings: ref https://dtp.cancer.gov/dtpstandard/dwindex/index.jsp; cited from earlier work
[18] = tested on: NCI/ADR-RES; design: method as in https://dtp.cancer.gov/dtpstandard/dwindex/index.jsp; settings: ref https://dtp.cancer.gov/dtpstandard/dwindex/index.jsp; cited from earlier work
[19] = tested on: 786-0; design: method as in https://dtp.cancer.gov/dtpstandard/dwindex/index.jsp; settings: ref https://dtp.cancer.gov/dtpstandard/dwindex/index.jsp; cited from earlier work
[20] = tested on: ACHN; design: method as in https://dtp.cancer.gov/dtpstandard/dwindex/index.jsp; settings: ref https://dtp.cancer.gov/dtpstandard/dwindex/index.jsp; cited from earlier work
[21] = tested on: RXF 393; design: method as in https://dtp.cancer.gov/dtpstandard/dwindex/index.jsp; settings: ref https://dtp.cancer.gov/dtpstandard/dwindex/index.jsp; cited from earlier work
[22] = tested on: TK-10; design: method as in https://dtp.cancer.gov/dtpstandard/dwindex/index.jsp; settings: ref https://dtp.cancer.gov/dtpstandard/dwindex/index.jsp; cited from earlier work
[23] = tested on: UO-31; design: method as in https://dtp.cancer.gov/dtpstandard/dwindex/index.jsp; settings: ref https://dtp.cancer.gov/dtpstandard/dwindex/index.jsp; cited from earlier work
[24] = tested on: DU-145; design: method as in https://dtp.cancer.gov/dtpstandard/dwindex/index.jsp; settings: ref https://dtp.cancer.gov/dtpstandard/dwindex/index.jsp; cited from earlier work
[25] = tested on: MDA-MB-231/ATCC; design: method as in https://dtp.cancer.gov/dtpstandard/dwindex/index.jsp; settings: ref https://dtp.cancer.gov/dtpstandard/dwindex/index.jsp; cited from earlier work
[26] = tested on: BT-549; design: method as in https://dtp.cancer.gov/dtpstandard/dwindex/index.jsp; settings: ref https://dtp.cancer.gov/dtpstandard/dwindex/index.jsp; cited from earlier work
[27] = tested on: T-47D; design: method as in https://dtp.cancer.gov/dtpstandard/dwindex/index.jsp; settings: ref https://dtp.cancer.gov/dtpstandard/dwindex/index.jsp; cited from earlier work
[28] = tested on: MDA-MB-468; design: method as in https://dtp.cancer.gov/dtpstandard/dwindex/index.jsp; settings: ref https://dtp.cancer.gov/dtpstandard/dwindex/index.jsp; cited from earlier work
[29] = tested on: NSC Lung Cancer subpanel tumor cell lines; settings: cited from earlier work; for TGI, subpanel average: ref https://dtp.cancer.gov/dtpstandard/dwindex/index.jsp
[30] = tested on: Ovarian Cancer subpanel tumor cell lines; settings: cited from earlier work; for GI50: read-out: GI50, subpanel average, ref https://dtp.cancer.gov/dtpstandard/dwindex/index.jsp; for TGI, subpanel average: ref https://dtp.cancer.gov/dtpstandard/dwindex/index.jsp
[31] = tested on: Renal Cancer subpanel tumor cell lines; settings: cited from earlier work; for GI50: read-out: GI50, subpanel average, ref https://dtp.cancer.gov/dtpstandard/dwindex/index.jsp; for TGI, subpanel average: ref https://dtp.cancer.gov/dtpstandard/dwindex/index.jsp
[32] = tested on: Prostate Cancer subpanel tumor cell lines; settings: cited from earlier work; for GI50: read-out: GI50, subpanel average, ref https://dtp.cancer.gov/dtpstandard/dwindex/index.jsp; for TGI, subpanel average: ref https://dtp.cancer.gov/dtpstandard/dwindex/index.jsp
[33] = tested on: Breast Cancer subpanel tumor cell lines; settings: cited from earlier work; for TGI, subpanel average: ref https://dtp.cancer.gov/dtpstandard/dwindex/index.jsp
[34] = tested on: EKVX; design: method as in https://dtp.cancer.gov/dtpstandard/dwindex/index.jsp; settings: ref https://dtp.cancer.gov/dtpstandard/dwindex/index.jsp; cited from earlier work
[35] = tested on: SNB-75; design: method as in https://dtp.cancer.gov/dtpstandard/dwindex/index.jsp; settings: ref https://dtp.cancer.gov/dtpstandard/dwindex/index.jsp; cited from earlier work
[36] = tested on: A498; design: method as in https://dtp.cancer.gov/dtpstandard/dwindex/index.jsp; settings: ref https://dtp.cancer.gov/dtpstandard/dwindex/index.jsp; cited from earlier work
[37] = tested on: CAKI-1; design: method as in https://dtp.cancer.gov/dtpstandard/dwindex/index.jsp; settings: ref https://dtp.cancer.gov/dtpstandard/dwindex/index.jsp; cited from earlier work
[38] = tested on: PC-3; design: method as in https://dtp.cancer.gov/dtpstandard/dwindex/index.jsp; settings: ref https://dtp.cancer.gov/dtpstandard/dwindex/index.jsp; cited from earlier work
[39] = tested on: MCF-7; design: method as in https://dtp.cancer.gov/dtpstandard/dwindex/index.jsp; settings: ref https://dtp.cancer.gov/dtpstandard/dwindex/index.jsp; cited from earlier work
[40] = read-out: GI50, subpanel average, ref https://dtp.cancer.gov/dtpstandard/dwindex/index.jsp
[41] = read-out: LC50, subpanel average, ref https://dtp.cancer.gov/dtpstandard/dwindex/index.jsp

Question: For `COc1cc2ncnc(Nc3ccc(F)c(Cl)c3)c2cc1OCCCN1CCOCC1` [Gefitinib, gefitinib], which GI50 [1] is on record?
Answer: 2000 nM

Question: What about the GI50 [2] of the same compound?
Answer: 2510 nM

Question: And the GI50 [3]?
Answer: 3980 nM

Question: What about the GI50 [4] of the same compound?
Answer: 2510 nM

Question: And the GI50 [5]?
Answer: 63 nM

Question: And the GI50 [6]?
Answer: 3160 nM

Question: What about the GI50 [7] of the same compound?
Answer: 10000 nM

Question: And the GI50 [8]?
Answer: 2510 nM

Question: And the GI50 [9]?
Answer: 10000 nM

Question: And the GI50 [10]?
Answer: 3160 nM

Question: And the GI50 [11]?
Answer: 3160 nM

Question: What about the GI50 [12] of the same compound?
Answer: 3980 nM

Question: What about the GI50 [13] of the same compound?
Answer: 10000 nM

Question: What about the GI50 [14] of the same compound?
Answer: 3160 nM

Question: And the GI50 [15]?
Answer: 2510 nM

Question: And the GI50 [16]?
Answer: 2000 nM

Question: What about the GI50 [17] of the same compound?
Answer: 3160 nM

Question: What about the GI50 [18] of the same compound?
Answer: 1260 nM

Question: What about the GI50 [19] of the same compound?
Answer: 3160 nM

Question: What about the GI50 [20] of the same compound?
Answer: 158 nM

Question: What about the GI50 [21] of the same compound?
Answer: 3160 nM

Question: What about the GI50 [22] of the same compound?
Answer: 794 nM

Question: And the GI50 [23]?
Answer: 1580 nM

Question: And the GI50 [24]?
Answer: 1580 nM

Question: And the GI50 [25]?
Answer: 3980 nM

Question: What about the GI50 [26] of the same compound?
Answer: 3160 nM

Question: What about the GI50 [27] of the same compound?
Answer: 7940 nM

Question: What about the GI50 [28] of the same compound?
Answer: 12.6 nM

Question: And the GI50 [29, 40]?
Answer: 2050 nM

Question: And the “TGI, subpanel average” value [29]?
Answer: 13860 nM

Question: And the GI50 [30]?
Answer: 3050 nM

Question: What about the “TGI, subpanel average” value [30] of the same compound?
Answer: 33290 nM

Question: And the GI50 [31]?
Answer: 1410 nM

Question: What about the “TGI, subpanel average” value [31] of the same compound?
Answer: 12500 nM

Question: What about the GI50 [32] of the same compound?
Answer: 3290 nM

Question: And the “TGI, subpanel average” value [32]?
Answer: 31620 nM

Question: What about the GI50 [33, 40] of the same compound?
Answer: 4670 nM

Question: What about the “TGI, subpanel average” value [33] of the same compound?
Answer: 18620 nM

Question: With `CNC(=O)c1cc(Oc2ccc(NC(=O)Nc3ccc(Cl)c(C(F)(F)F)c3)cc2)ccn1` [Sorafenib, sorafenib] as the compound, how does the GI50 [1] read?
Answer: 3160 nM

Question: What about the GI50 [2] of the same compound?
Answer: 3160 nM

Question: What about the GI50 [34] of the same compound?
Answer: 2510 nM

Question: And the GI50 [3]?
Answer: 1990 nM

Question: And the GI50 [4]?
Answer: 1990 nM

Question: And the GI50 [5]?
Answer: 2510 nM

Question: What about the GI50 [6] of the same compound?
Answer: 2510 nM

Question: What about the GI50 [8] of the same compound?
Answer: 2510 nM

Question: What about the GI50 [10] of the same compound?
Answer: 3160 nM

Question: What about the GI50 [35] of the same compound?
Answer: 3160 nM

Question: What about the GI50 [11] of the same compound?
Answer: 1990 nM

Question: What about the GI50 [12] of the same compound?
Answer: 1990 nM

Question: What about the GI50 [13] of the same compound?
Answer: 1990 nM

Question: What about the GI50 [14] of the same compound?
Answer: 2510 nM

Question: What about the GI50 [15] of the same compound?
Answer: 1990 nM

Question: What about the GI50 [17] of the same compound?
Answer: 2510 nM

Question: And the GI50 [18]?
Answer: 2510 nM

Question: What about the GI50 [19] of the same compound?
Answer: 3160 nM

Question: What about the GI50 [36] of the same compound?
Answer: 2510 nM

Question: What about the GI50 [20] of the same compound?
Answer: 2510 nM

Question: What about the GI50 [37] of the same compound?
Answer: 3160 nM

Question: What about the GI50 [21] of the same compound?
Answer: 2510 nM

Question: And the GI50 [22]?
Answer: 3980 nM

Question: What about the GI50 [23] of the same compound?
Answer: 2510 nM

Question: What about the GI50 [38] of the same compound?
Answer: 1990 nM

Question: And the GI50 [24]?
Answer: 3160 nM

Question: What about the GI50 [39] of the same compound?
Answer: 2510 nM

Question: And the GI50 [25]?
Answer: 1260 nM

Question: And the GI50 [26]?
Answer: 3160 nM

Question: What about the GI50 [28] of the same compound?
Answer: 1990 nM

Question: What about the CC50 [29, 41] of the same compound?
Answer: 49200 nM

Question: And the “TGI, subpanel average” value [29]?
Answer: 7990 nM

Question: What about the GI50 [30] of the same compound?
Answer: 2890 nM

Question: And the CC50 [30, 41]?
Answer: 71300 nM

Question: What about the “TGI, subpanel average” value [30] of the same compound?
Answer: 14430 nM

Question: What about the GI50 [31] of the same compound?
Answer: 2860 nM

Question: What about the CC50 [31, 41] of the same compound?
Answer: 54800 nM

Question: And the “TGI, subpanel average” value [31]?
Answer: 10860 nM

Question: What about the GI50 [32] of the same compound?
Answer: 2580 nM

Question: What about the CC50 [32, 41] of the same compound?
Answer: 69900 nM

Question: And the “TGI, subpanel average” value [32]?
Answer: 10270 nM

Question: And the CC50 [33, 41]?
Answer: 57300 nM

Question: And the “TGI, subpanel average” value [33]?
Answer: 9350 nM
